Source: patent publication US20250127716A1, “INHALED IMATINIB FOR TREATMENT OF PULMONARY HYPERTENSION” (JUSTUS-LIEBIG-UNIVERSITAET GIESSEN, priority 2022, published 2025)
“Also recorded” adds a separate entry of the source. Structures can show the parent of a compound that is named as a salt.

Columns and labels:
[1] = Formulation of stable concentrated imatinib solutions in different solvents (Examples 1-4); conditions: room temperature, one hour
[2] = In vitro nebulization feasibility, Medspray wet aerosol inhaler single nozzle unit (Example 5); format: physicochemical; conditions: Medspray nozzle pore size 1.9 μm
Description: In an in vitro nebulization study, the feasibility to nebulize different imatinib mesylate solutions by the Medspray™ wet aerosol inhaler was evaluated. A 1 ml syringe was filled with the formulation to be tested, a single nozzle unit of Medspray™ wet aerosol inhaler was then fixed on the syringe by a luer adapter. The nozzle pore size was 1.9 μm. The aerosol was produced by pressing the piston of the syringe manually, thereby forcing the solution through the nozzle pores. […] When using ethanol 10% (v/v) or glycerol 1% (v/v), solutions with a concentration of 240 mg/ml were nebulizable; a mixture of ethanol 10% (v/v) and glycerol 1% (v/v) further increased the maximum imatinib concentration of the solution to 250 mg/ml capable of being nebulized.

PAH-patients = conditions: oral, cited from earlier work
[3] = cited from earlier work
PAH patients = conditions: oral; phase II, 59 patients; cited from earlier work
[4] = 24-week trial, 202 PAH-patients

Structure (SMILES): Cc1ccc(NC(=O)c2ccc(CN3CCN(C)CC3)cc2)cc1Nc1nccc(-c2cccnc2)n1 [Imatinib free base, 4-[(4-methylpiperazin-1-yl)methyl]-N-(4-methyl-3-{[4-(pyridin-3-yl)pyrimidin-2-yl]amino}phenyl)benzamide]
- imatinib concentration of stable solution that could be formulated ([1]; a. dest, NaCl 0.9%, citrate buffer 5%, urea 5%, ethanol 10%, glycerol 1%): ≤ 5 mg/mL

Structure (SMILES): Cc1ccc(NC(=O)c2ccc(CN3CCN(C)CC3)cc2)cc1Nc1nccc(-c2cccnc2)n1 [Imatinib mesylate]
- maximum concentration capable of being nebulized ([2]; solvent a. dest): 210 mg/mL
- maximum imatinib concentration capable of being nebulized ([2]; solvent ethanol 10% (v/v) and glycerol 1% (v/v)): 250 mg/mL
- concentration nebulizable ([2]; solvent ethanol 10% (v/v)): 240000 µg/mL
- concentration nebulizable ([2]; solvent glycerol 1% (v/v)): 240000 µg/mL
- stability of resulting solutions ([1]; higher ionic strength solvents of Example 3): not stable
- concentration of stable imatinib mesylate solution that could be formulated ([1]; higher ionic strength solvents: NaCl 0.9%, HCl/NaOH, citrate, HEPES, trometamol, PBS buffer): < 50000 µg/mL
- concentration of stable imatinib mesylate solution that could be formulated ([1]; low ionic strength solvents of Example 4 (a. dest, ethanol, urea, glycerol, mannitol, glycols, ectoin)): up to 500 mg/ml
- 6-minute walk distance (primary outcome) (PAH-patients; [4]): significantly improving; also recorded: significantly improved
- pulmonary vascular resistance (PAH-patients; [4]): significantly improved
- inter-subject variation in pharmacokinetics ([3]; in vivo): high
- bioavailability ([3]; oral): almost complete
- change from baseline in the 6-minute-walk distance (primary endpoint) (PAH patients): not meeting the primary endpoint
- pulmonary hemodynamics (secondary endpoint) (PAH patients): significantly improved

Structure (SMILES): Cc1ccc(NC(=O)c2ccc(CN3CCN(C)CC3)cc2)cc1Nc1nccc(-c2cccnc2)n1 [imatinib, 4-[(4-methylpiperazin-1-yl)methyl]-N-(4-methyl-3-{[4-(pyridin-3-yl)pyrimidin-2-yl]amino}phenyl)benzamide]
- adverse events, side effects and discontinuation (PAH-patients; study and open-label extension phase): severe adverse events, significant side effects, and a high discontinuation rate
